PubChem BioAssay AID2765 (Broad Institute, 2010)
The source made the active and inactive calls.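 How the source made its calls: active means half-maximal concentration for the rise in caspase light signal at or below ten times the top tested dose; inconclusive means flat fit between 30% and 70% activity, or unreliable curve fit; inactive means the rest.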

What follows are compounds tested on MEF A1-2A-BIM cells, caspase 3/7 luminescence, 3 h (assay: caspase activation in A1-2A-BIM MEF cells, dose response, A1 inhibitor project, cell-based, luminescence, retest (AID 2765)).

| SMILES | EC50 |
| --- | --- |
| O=C(c1cc(C2CC2)nn1-c1ccccc1)N1CCN(S(=O)(=O)c2cccc(F)c2)CC1 | > 35 µM (inactive) |
| O=C(O)c1cc(-c2ccc(Cl)cc2)n(-c2cccc(Cl)c2)n1 | > 35 µM (inactive) |
| CCS(=O)(=O)Nc1ccc(Cc2ccncc2)cc1 | > 35 µM (inactive) |
| O=C(OCn1ncc(Cl)c(Cl)c1=O)c1cccc(C(F)(F)F)c1 | > 35 µM (inactive) |
| COC(=O)C(C)Oc1cc(OC(C)C(=O)OC)c2c(-c3ccccc3)cc(=O)oc2c1 (stereo not drawn) | > 35 µM (inactive) |
| Nc1cccc(Oc2cnccn2)c1 | > 35 µM (inactive) |
| CCOC(=O)CNC(=O)N1CCCC(CNS(=O)(=O)Cc2ccccc2)C1 (stereo not drawn) | > 35 µM (inactive) |
| N#CN=C1SCCS1 | > 35 µM (inactive) |
| NC(=S)NNC(=O)/C(=C/c1ccc(Br)cc1)NC(=O)c1ccccc1 | > 35 µM (inactive) |
| CCOC(=O)C(NC(=O)c1ccc(OC)cc1)(N1CCCC1=O)C(F)(F)F (stereo not drawn) | > 35 µM (inactive) |
| Cc1cc(Br)c2c(c1)C1(OCCO1)C(=O)N2 | > 35 µM (inactive) |
| C=CCn1c(SCc2ccc(F)cc2)nnc1-c1sc2nc(C)cc(C)c2c1N | > 35 µM (inactive) |
| O=[N+]([O-])c1ccc(S(=O)(=O)N/N=C/c2ccsc2)cc1 | > 35 µM (inactive) |
| O=C(COC(=O)c1ccccc1Br)NC1CCCCCCC1 | > 35 µM (inactive) |
| O=C(CN1C(=O)COc2ccccc21)NCCCN1CCc2ccccc2C1 | > 35 µM (inactive) |
| Cc1ccc(C(=O)NCC(=O)OC(C)C(=O)Nc2ccc(N(C)C)cc2)s1 (stereo not drawn) | > 35 µM (inactive) |
| CCCNC(=O)N1[C@H]2CC[C@@H]1C(C(=O)OC)=C(c1c(C)noc1C)C2 | > 35 µM (inactive) |
| CSc1ccc(CNC(=O)Cn2nc(C)c3c(C)n(-c4ccc(C)cc4)nc3c2=O)cc1 | > 35 µM (inactive) |
| CCOC(=O)CN(Cc1ccccc1)C(=O)OC(C)(C)C | > 35 µM (inactive) |
| Cc1ccc(S(=O)(=O)n2cc(-c3ccccc3)c3ccccc32)cc1 | > 35 µM (inactive) |
| O=C1c2ccsc2SCCN1Cc1cccc(F)c1 | > 35 µM (inactive) |
| CCCN1C(=O)/C(=N\OCC(=O)NC23CC4CC(CC(C4)C2)C3)c2ccccc21 | > 35 µM (inactive) |
| CC1=CC(=O)C(C(C)C)=C/C1=N/OS(=O)(=O)c1ccccc1 | 9.28 µM |
| CCC(Sc1ncccc1Nc1ccccn1)C(=O)O (stereo not drawn) | > 35 µM (inactive) |

| SMILES | EC50 |
| --- | --- |
| CCCCCCCC/C=C\CCCCCCCC(=O)O | > 35 µM (inactive) |
| Cn1c(O)c(C=NCCN2CCN(C(=O)Nc3ccccc3)CC2)c(=O)n(C)c1=O | > 35 µM (inactive) |
| O=C1C(=O)c2ccc(-c3ccccc3)cc2-c2ccccc21 | > 35 µM (inactive) |
| CCOC(=O)c1oc2ccccc2c1NC(=O)CN1CCN(C)CC1 | > 35 µM (inactive) |
| COCCCn1cc(C(=O)c2cc(OC)ccc2OCC(=O)N2CCCCC2C)cc(C#N)c1=O (stereo not drawn) | > 35 µM (inactive) |
| COc1ccc(-c2csc(NC(=O)Cc3ccccc3F)n2)c(OC)c1 | > 35 µM (inactive) |
| O=C1/C(=C\c2c(NCCOCCO)nc3ccccn3c2=O)SC(=S)N1Cc1ccco1 | > 35 µM (inactive) |
| CCOC(=O)C1=C(C)N(CCCC(=O)O)C(=O)NC1c1ccccc1OS(=O)(=O)c1ccc(C)cc1 (stereo not drawn) | > 35 µM (inactive) |
| O=C(O)CN1C(=O)C2C3CC(C2C1=O)C1C(c2ccccc2)c2sc(=O)[nH]c2SC31 (stereo not drawn) | > 35 µM (inactive) |
| COc1ccc(N/C(=N/c2nc(C)cc(C)n2)NC(=O)Nc2ccc(Cl)c(Cl)c2)c(OC)c1 | > 35 µM (inactive) |
| Cc1ccccc1[C@]1(C)ON(c2ccccc2C(F)(F)F)C1=O | > 35 µM (inactive) |
| O=C1ON=C(c2ccc(Cl)cc2)/C1=C/c1ccc(O)cc1 | > 35 µM (inactive) |
| CCCn1c(SCC(=O)NC)nc2sc3c(c2c1=O)CCC3 | > 35 µM (inactive) |
| CN1C2CCC1/C(=C/c1ccccn1)C(=O)/C2=C\c1ccccn1 | > 35 µM (inactive) |
| O=C(Nc1ccc([N+](=O)[O-])cc1)C(Cc1ccccc1)N1C(=O)c2cccc3cccc(c23)C1=O (stereo not drawn) | > 35 µM (inactive) |
| CCc1nnc(NC(=O)c2ccc(NC(=O)C(C)C)cc2)s1 | > 35 µM (inactive) |
| Cc1cc(N2C(=O)C=CC2=O)c([N+](=O)[O-])cc1C | > 35 µM (inactive) |
| Cc1ccc(OCCC(=O)Nc2ccccc2C(=O)NC2CC2)cc1 | > 35 µM (inactive) |
| O=C(CN(c1ccc(Br)cc1)S(=O)(=O)c1ccc(Cl)c([N+](=O)[O-])c1)NCCc1ccccc1 | > 35 µM (inactive) |
| CCCNC(=O)C(Cc1ccccc1)NC(=O)Cc1ccccc1 (stereo not drawn) | > 35 µM (inactive) |
| O=C(COC(=O)/C=C/c1cccc(Cl)c1Cl)Nc1ccc2[nH]c(=O)[nH]c2c1 | > 35 µM (inactive) |
| CCC(=O)N/C(N)=N/c1nc(C)c2cc(C)c(C)cc2n1 | > 35 µM (inactive) |
| CCOc1cc(/C=C2/C(=N)N3C=CSC3=NC2=O)ccc1OCCCOc1ccccc1C | 18 µM |
| Cc1ccsc1CNC1CCCCC1 | > 35 µM (inactive) |
